Data from publication doi:10.1101/2021.09.30.462449v1 (biorxiv, 2021).

Assays:
Experiment in all cases: biochemical
Conditions in all cases: read-out: % inhibition mean (Z'Lyte)
ABL1 E255K = ABL1 E255K (Homo sapiens, UniProt P00519, E255K)
ABL1 F317L = ABL1 F317L (Homo sapiens, UniProt P00519, F317L)
ABL1 G250E = ABL1 G250E (Homo sapiens, UniProt P00519, G250E)
AKT1 (PKB alpha) = AKT1 (PKB alpha) (Homo sapiens, UniProt P31749)
AXL = AXL (Homo sapiens, UniProt P30530)
BMX = BMX (Homo sapiens, UniProt P51813)
CAMK1D (CaMKI delta) = CAMK1D (CaMKI delta) (Homo sapiens, UniProt Q8IU85)
CAMK2B (CaMKII beta) = CAMK2B (CaMKII beta) (Homo sapiens, UniProt Q13554)
Sequence of CAMK2B (CaMKII beta) (Q13554 whole entry): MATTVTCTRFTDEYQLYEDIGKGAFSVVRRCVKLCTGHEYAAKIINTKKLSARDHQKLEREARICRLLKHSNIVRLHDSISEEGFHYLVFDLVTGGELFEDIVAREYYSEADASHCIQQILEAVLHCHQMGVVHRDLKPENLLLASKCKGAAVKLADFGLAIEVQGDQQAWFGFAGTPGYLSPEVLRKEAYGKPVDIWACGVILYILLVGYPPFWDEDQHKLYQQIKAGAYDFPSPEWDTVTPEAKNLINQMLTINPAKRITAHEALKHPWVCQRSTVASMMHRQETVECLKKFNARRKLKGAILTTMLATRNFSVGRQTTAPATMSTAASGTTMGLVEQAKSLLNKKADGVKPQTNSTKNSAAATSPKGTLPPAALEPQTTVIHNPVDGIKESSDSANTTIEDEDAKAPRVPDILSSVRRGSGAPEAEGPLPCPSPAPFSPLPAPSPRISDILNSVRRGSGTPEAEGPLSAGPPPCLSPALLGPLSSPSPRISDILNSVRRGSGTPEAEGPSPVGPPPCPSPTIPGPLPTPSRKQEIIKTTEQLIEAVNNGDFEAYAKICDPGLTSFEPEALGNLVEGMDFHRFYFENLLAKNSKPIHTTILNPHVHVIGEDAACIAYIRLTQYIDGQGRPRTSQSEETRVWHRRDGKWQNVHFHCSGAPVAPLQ

CDK5/p25 = CDK5/p25 (Homo sapiens, UniProt Q00535)
CSK = CSK (Homo sapiens, UniProt P41240)
DYRK1A = DYRK1A (Homo sapiens, UniProt Q13627)
EGFR (ErbB1) C797S = EGFR (ErbB1) C797S (Homo sapiens, UniProt P00533, C797S)
EPHA5 = EPHA5 (Homo sapiens, UniProt P54756)
ERBB4 (HER4) = ERBB4 (HER4) (Homo sapiens, UniProt Q15303)
Sequence of ERBB4 (HER4) (Q15303 whole entry): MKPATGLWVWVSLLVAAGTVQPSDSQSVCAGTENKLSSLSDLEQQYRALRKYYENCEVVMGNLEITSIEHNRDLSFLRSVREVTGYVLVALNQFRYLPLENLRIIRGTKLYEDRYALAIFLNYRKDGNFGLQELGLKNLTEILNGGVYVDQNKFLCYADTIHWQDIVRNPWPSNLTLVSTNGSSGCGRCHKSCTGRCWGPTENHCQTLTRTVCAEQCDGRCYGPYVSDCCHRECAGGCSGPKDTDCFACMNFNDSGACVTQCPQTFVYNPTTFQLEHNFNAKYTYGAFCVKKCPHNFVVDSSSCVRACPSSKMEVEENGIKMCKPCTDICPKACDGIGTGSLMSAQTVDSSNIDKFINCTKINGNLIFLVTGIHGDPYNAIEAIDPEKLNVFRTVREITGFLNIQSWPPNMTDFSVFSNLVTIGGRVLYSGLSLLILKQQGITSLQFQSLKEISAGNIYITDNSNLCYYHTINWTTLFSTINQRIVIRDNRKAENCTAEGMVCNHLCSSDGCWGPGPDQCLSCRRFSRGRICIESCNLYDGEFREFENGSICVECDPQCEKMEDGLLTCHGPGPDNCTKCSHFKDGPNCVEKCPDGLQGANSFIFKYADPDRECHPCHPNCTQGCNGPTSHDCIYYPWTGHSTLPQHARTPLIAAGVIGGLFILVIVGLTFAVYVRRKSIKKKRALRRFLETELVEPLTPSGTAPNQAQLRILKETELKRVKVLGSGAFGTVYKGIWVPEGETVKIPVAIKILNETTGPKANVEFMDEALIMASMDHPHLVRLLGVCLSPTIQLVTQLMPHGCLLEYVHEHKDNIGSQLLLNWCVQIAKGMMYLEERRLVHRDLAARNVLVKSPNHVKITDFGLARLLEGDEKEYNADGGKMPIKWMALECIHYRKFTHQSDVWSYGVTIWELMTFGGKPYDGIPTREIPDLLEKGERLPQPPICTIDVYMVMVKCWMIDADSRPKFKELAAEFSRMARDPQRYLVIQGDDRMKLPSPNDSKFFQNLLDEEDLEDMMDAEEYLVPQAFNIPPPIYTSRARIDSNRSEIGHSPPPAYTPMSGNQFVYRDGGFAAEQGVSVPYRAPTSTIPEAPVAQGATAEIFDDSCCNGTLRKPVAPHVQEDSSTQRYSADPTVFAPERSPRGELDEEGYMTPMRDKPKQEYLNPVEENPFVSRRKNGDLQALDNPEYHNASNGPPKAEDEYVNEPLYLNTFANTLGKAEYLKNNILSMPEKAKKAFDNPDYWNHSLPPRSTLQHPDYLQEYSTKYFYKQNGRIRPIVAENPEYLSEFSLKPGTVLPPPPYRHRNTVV

FGFR3 V555M = FGFR3 V555M (Homo sapiens, UniProt P22607, V555M)
FRK (PTK5) = FRK (PTK5) (Homo sapiens, UniProt P42685)
GRK4 = GRK4 (Homo sapiens, UniProt P32298)
GSK3B (GSK3 beta) = GSK3B (GSK3 beta) (Homo sapiens, UniProt P49841)
Sequence of GSK3B (GSK3 beta) (P49841 whole entry): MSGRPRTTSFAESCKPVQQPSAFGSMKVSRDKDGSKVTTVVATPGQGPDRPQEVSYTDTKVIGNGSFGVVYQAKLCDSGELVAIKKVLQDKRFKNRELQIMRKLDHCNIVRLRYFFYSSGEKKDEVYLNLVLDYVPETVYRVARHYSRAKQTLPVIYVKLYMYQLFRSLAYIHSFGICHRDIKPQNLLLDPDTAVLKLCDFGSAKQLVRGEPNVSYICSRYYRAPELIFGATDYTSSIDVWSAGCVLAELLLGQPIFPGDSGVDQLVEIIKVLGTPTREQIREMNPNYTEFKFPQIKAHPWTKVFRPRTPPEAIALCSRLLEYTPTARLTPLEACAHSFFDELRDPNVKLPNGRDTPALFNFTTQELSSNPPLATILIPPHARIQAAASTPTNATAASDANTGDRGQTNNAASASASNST

HIPK3 (YAK1) = HIPK3 (YAK1) (Homo sapiens, UniProt Q9H422)
Sequence of HIPK3 (YAK1) (Q9H422 whole entry): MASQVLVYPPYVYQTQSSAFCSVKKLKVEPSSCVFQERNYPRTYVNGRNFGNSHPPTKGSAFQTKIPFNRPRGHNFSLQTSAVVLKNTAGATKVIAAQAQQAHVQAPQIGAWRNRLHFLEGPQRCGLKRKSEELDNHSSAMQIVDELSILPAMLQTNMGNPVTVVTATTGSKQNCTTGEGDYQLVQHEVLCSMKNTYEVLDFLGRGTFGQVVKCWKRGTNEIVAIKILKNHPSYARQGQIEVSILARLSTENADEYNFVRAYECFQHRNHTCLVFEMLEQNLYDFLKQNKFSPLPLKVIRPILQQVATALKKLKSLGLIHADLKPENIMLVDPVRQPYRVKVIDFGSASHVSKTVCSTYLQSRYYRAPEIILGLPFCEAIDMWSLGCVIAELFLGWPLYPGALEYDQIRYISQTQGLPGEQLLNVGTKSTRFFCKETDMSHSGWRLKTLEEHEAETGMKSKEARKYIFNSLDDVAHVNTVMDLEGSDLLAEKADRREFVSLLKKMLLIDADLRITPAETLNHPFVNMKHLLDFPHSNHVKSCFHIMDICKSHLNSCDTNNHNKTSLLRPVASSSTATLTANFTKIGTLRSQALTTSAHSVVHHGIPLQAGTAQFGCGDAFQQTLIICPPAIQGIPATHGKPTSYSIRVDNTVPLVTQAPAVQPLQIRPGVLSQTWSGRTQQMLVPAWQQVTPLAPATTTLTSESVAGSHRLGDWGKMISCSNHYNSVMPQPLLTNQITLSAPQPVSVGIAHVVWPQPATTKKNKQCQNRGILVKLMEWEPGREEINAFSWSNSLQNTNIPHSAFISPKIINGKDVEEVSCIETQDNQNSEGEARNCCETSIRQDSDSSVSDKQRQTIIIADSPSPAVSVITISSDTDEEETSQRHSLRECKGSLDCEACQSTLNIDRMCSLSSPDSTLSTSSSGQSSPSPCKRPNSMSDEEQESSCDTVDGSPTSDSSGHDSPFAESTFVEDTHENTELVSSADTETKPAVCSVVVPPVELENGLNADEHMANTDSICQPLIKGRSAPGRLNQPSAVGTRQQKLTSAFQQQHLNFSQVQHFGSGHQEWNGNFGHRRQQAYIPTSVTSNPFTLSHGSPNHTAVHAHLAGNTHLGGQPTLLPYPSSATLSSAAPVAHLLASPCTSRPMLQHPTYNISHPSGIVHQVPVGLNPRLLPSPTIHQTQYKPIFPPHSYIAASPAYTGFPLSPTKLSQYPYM

MAP3K9 (MLK1) = MAP3K9 (MLK1) (Homo sapiens, UniProt P80192)
Sequence of MAP3K9 (MLK1) (P80192 whole entry): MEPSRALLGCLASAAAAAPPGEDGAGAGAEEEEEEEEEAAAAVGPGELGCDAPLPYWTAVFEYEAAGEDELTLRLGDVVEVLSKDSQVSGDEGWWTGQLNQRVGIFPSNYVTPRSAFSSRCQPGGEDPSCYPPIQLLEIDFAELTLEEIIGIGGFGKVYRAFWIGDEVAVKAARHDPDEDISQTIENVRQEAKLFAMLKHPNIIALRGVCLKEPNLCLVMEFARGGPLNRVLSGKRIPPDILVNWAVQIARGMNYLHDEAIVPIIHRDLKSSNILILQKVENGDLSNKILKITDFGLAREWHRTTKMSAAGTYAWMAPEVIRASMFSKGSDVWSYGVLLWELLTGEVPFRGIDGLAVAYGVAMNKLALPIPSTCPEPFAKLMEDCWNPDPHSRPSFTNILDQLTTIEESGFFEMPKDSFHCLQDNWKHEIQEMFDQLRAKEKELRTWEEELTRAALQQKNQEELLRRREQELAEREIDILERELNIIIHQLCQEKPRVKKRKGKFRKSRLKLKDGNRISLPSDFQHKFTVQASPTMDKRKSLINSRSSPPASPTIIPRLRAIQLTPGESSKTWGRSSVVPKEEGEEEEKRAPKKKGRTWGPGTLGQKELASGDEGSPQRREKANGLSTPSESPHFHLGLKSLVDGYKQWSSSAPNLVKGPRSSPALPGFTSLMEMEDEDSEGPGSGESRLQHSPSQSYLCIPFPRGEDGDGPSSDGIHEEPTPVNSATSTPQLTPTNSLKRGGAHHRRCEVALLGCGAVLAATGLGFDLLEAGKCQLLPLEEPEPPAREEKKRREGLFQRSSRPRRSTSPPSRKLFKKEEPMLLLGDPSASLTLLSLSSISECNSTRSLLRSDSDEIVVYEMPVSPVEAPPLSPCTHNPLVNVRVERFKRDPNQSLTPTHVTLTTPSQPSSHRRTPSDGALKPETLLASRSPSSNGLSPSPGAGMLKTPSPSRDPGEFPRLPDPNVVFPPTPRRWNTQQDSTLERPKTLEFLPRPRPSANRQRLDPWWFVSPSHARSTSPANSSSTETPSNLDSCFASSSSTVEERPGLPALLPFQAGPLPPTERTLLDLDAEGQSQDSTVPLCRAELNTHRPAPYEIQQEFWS

MAPKAPK3 = MAPKAPK3 (Homo sapiens, UniProt Q16644)
Sequence of MAPKAPK3 (Q16644 whole entry): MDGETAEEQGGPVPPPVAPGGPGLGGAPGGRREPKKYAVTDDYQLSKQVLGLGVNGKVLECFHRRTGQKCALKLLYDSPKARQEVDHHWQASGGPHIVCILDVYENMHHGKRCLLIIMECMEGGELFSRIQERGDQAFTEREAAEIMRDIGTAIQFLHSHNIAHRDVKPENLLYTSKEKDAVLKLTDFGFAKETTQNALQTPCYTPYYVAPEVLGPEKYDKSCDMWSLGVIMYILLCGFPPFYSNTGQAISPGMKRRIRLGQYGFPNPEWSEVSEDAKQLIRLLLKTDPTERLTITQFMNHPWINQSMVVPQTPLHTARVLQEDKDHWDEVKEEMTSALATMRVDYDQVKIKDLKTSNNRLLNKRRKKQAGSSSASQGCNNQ

MARK2 = MARK2 (Homo sapiens, UniProt Q7KZI7)
MARK3 = MARK3 (Homo sapiens, UniProt P27448)
MET (cMet) Y1235D = MET (cMet) Y1235D (Homo sapiens, UniProt P08581, Y1235D)
MKNK1 (MNK1) = MKNK1 (MNK1) (Homo sapiens, UniProt Q9BUB5)
MST4 = MST4 (Homo sapiens, UniProt Q9P289)
PDGFRA D842V = PDGFRA D842V (Homo sapiens, UniProt P16234, D842V)
RET S891A = RET S891A (Homo sapiens, UniProt P07949, S891A)

Question: With COc1ccc2nc3cc(Cl)ccc3c(Nc3cc(CN4CCCC4)c(O)c(CN4CCCC4)c3)c2n1 [Pyronaridine, 4-[(7-Chloro-2-methoxybenzo[b][1,5]naphthyridin-10-yl)amino]-2,6-bis(1-pyrrolidinylmethyl)phenol phosphate (1:4)] as the molecule, how does the inhibition at 1 µM (ABL1 E255K) read?
Answer: 7%

Question: What about the inhibition at 1 µM (ABL1 F317L) of the same molecule?
Answer: -1%

Question: What about the inhibition at 1 µM (ABL1 G250E) of the same molecule?
Answer: 1%

Question: What about the inhibition at 1 µM (AKT1 (PKB alpha)) of the same molecule?
Answer: 4%

Question: What about the inhibition at 1 µM (AXL) of the same molecule?
Answer: 1%

Question: What about the inhibition at 1 µM (BMX) of the same molecule?
Answer: 11%

Question: And the inhibition at 1 µM (CAMK1D (CaMKI delta))?
Answer: -26%

Question: And the inhibition at 1 µM (CAMK2B (CaMKII beta))?
Answer: 1%

Question: And the inhibition at 1 µM (CDK5/p25)?
Answer: 0%

Question: What about the inhibition at 1 µM (CSK) of the same molecule?
Answer: -3%

Question: What about the inhibition at 1 µM (DYRK1A) of the same molecule?
Answer: 3%

Question: What about the inhibition at 1 µM (EGFR (ErbB1) C797S) of the same molecule?
Answer: -7%

Question: And the inhibition at 1 µM (EPHA5)?
Answer: -3%

Question: What about the inhibition at 1 µM (ERBB4 (HER4)) of the same molecule?
Answer: -2%

Question: And the inhibition at 1 µM (FGFR3 V555M)?
Answer: -1%

Question: What about the inhibition at 1 µM (FRK (PTK5)) of the same molecule?
Answer: -2%

Question: What about the inhibition at 1 µM (GRK4) of the same molecule?
Answer: 25%

Question: What about the inhibition at 1 µM (GSK3B (GSK3 beta)) of the same molecule?
Answer: 8%

Question: What about the inhibition at 1 µM (HIPK3 (YAK1)) of the same molecule?
Answer: -2%

Question: And the inhibition at 1 µM (MAP3K9 (MLK1))?
Answer: 17%

Question: And the inhibition at 1 µM (MAPKAPK3)?
Answer: 17%

Question: What about the inhibition at 1 µM (MARK2) of the same molecule?
Answer: 6%

Question: And the inhibition at 1 µM (MARK3)?
Answer: 2%

Question: What about the inhibition at 1 µM (MET (cMet) Y1235D) of the same molecule?
Answer: 4%

Question: What about the inhibition at 1 µM (MKNK1 (MNK1)) of the same molecule?
Answer: 4%

Question: And the inhibition at 1 µM (MST4)?
Answer: 1%

Question: And the inhibition at 1 µM (PDGFRA D842V)?
Answer: -1%

Question: And the inhibition at 1 µM (RET S891A)?
Answer: -3%
